Experimental data as given in PMC13267113 (npj Drug Discovery, 2025).
Values after ≈ are worked out from the molar mass of the structure shown.

Key:
[1] = target: T1, human DNA topoisomerase IIα (TOP2A) (Homo sapiens, UniProt P11388); assay: human topoisomerase II alpha decatenation assay; assay type: biochemical; settings: n = 3, read-out: IC50 against TOP2A
T1 construct: purchased Inspiralis
Method: Inhibition of topoisomerase activity was examined using the human topoisomerase II alpha decatenation assay kit (Inspiralis) as indicated by the manufacturer. Briefly, a compound dilution series was prepared in DMSO. Water, dilution buffer, assay buffer, plasmid and enzyme were mixed with the compound solution and incubated at 37 °C for 30 min. A positive control (100% activity) was prepared without the compound, and a negative control (0% activity) was prepared without the compound and the enzyme. The reaction was stopped by adding gSTEB-buffer and chloroform/isoamylalcohol (24:1 v/v). The samples were vortexed and centrifuged before running gel electrophoresis. The gel was stained with ethidium bromide and imaged using a Fusion Fx gel imager (Vilber Lourmat). Subsequent analysis was done using ImageJ and GraphPad Prism (Version 10.0.2).

HepG2 (human, liver) = assay: MTT cytotoxicity HepG2; assay type: cell-based; settings: 72 h, n = 3
Method: (§1) All cell types were cultivated at 37 °C with 5% CO2. HepG2, HEK293, HCT116, CHO-K1, HeLa-CCL-2 and Huh-7.5 were purchased from ATCC. The respective cell media (Gibco) were supplemented with 10% FBS (Gibco) before usage. Cells were used between passages #5 and #30. To obtain biological repeats, cells were split separately for at least two passages.
(§2) Cells were washed with PBS and 0.5 mL trypsin was added. Afterwards, cells were incubated for 5 min before adding 10 mL medium containing 10% FBS. Per well, 120 µL cell suspension (5 × 10^4 cells/mL) was seeded in transparent 96-well cell bind plates and incubated for 2 h (37 °C, 5% CO2). A dilution series (1:3) of test compounds was prepared in respective media containing 10% FBS and added (60 µL) to the prepared cell plate. Cells were incubated for a further 72 h (37 °C, 5% CO2). Next, 20 µL MTT (5 mg/mL in PBS) was added to each well and incubated for 2 h (37 °C, 5% CO2). The wells were emptied and 100 µL isopropanol/10 N HCl (1000:4) per well was added.
(§3) The plates were analyzed by measuring the absorbance at 570 nm (plate reader Infinite® 200 Pro, Tecan). After normalization of data to the respective solvent controls, the calculated percentage of growth inhibition was plotted using GraphPad Prism software (version 10.0.2).

HEK293 (human, kidney) = assay: MTT cytotoxicity HEK293; assay type: cell-based; settings: HEK293, MTT, 72 h, n = 3, read-out: IC50 HEK293 (human, kidney)
Method: as §1, §2, §3

HCT116 (human, colon) = assay: MTT cytotoxicity HCT116; assay type: cell-based; settings: HCT-116, 72 h, n = 3
Method: as §1, §2, §3

CHO-K1 (hamster, ovary) = assay: MTT cytotoxicity CHO-K1; assay type: cell-based; settings: CHO-K1, 72 h, n = 3
Method: as §1, §2, §3

HeLa (human, cervix) = assay: MTT cytotoxicity HeLa; assay type: cell-based; settings: 72 h, n = 3
Method: as §1, §2, §3

[2] = test system: U2OS (human, osteosarcoma); assay: MTT cytotoxicity U2OS; assay type: cell-based; settings: 72 h, n = 3
Method: as §2, §3

Huh-7.5 (human, liver) = assay: MTT cytotoxicity Huh-7.5; assay type: cell-based; settings: Huh7.5, 72 h, n = 3
Method: as §1, §2, §3

U-2 OS cells = assay: Mitochondrial superoxide formation (MitoSOX Red); assay type: cell-based, human; settings: n = 6
Method: CYS was tested for its potential to induce oxidative stress in U-2 OS cells. Therefore, 120 µL of a cell suspension in McCoy’s (+10% FBS) containing 5 × 10^4 cells/mL were seeded into black 96-well imaging plate (BD Falcon). The plates were incubated for two days (37 °C, 5% CO2) until the cells reached approximately 70% confluence. Subsequently, the cells were washed with HBSS buffer, prior to adding CYS (20 µM) and the ROS inducer menadione (50 µM) as positive control, along with the staining solution (HBSS, calcium, magnesium, 5 µM MitoSOX red and 10 µg/mL Hoechst (Thermo)). To check for ROS protective properties, menadione (50 µM) was added directly to the staining solution. […] Afterwards, the cells were washed twice with HBSS. The cells were imaged using an automated fluorescence microscope (Celldiscoverer 7, Zeiss) (excitation: […]) to analyze the fluorescence intensity of the superoxide tracker MitoSOX red. The experiment was carried out with six replicates per condition. Quantification was done by high-content image analysis using the ZEN software (version 3.4, blue edition, Zeiss). Data presentation was done using GraphPad Prism (version 10.0.3) with ordinary one-way ANOVA including multiple comparisons to the control group for statistical analysis of the sample without ROS induction via menadione in the staining solution. Multiple unpaired t test was used to compare samples for ROS protective properties, which were incubated with menadione in the staining solution.

[3] = Metabolic stability in mouse hepatocytes; assay type: in vitro ADME
Method: For the evaluation of combined phase I and phase II metabolic stability, the compound (1 μM) was incubated with 0.25 × 10^6 cells/mL of pooled mouse hepatocytes (Xenotech, Kansas City, USA). Cells were thawed in Leibovitz’s L-15 medium without phenol red (ThermoFisher Scientific, Waltham, USA). Briefly, cells were transferred into 50 mL of medium, followed by centrifugation at 55 g for 6 min. Supernatant was discarded, and the cell count was determined after gently resuspending the cell pellet in 1mL of medium. Hepatocytes were diluted to 0.5 × 10^6 cells/mL and incubated at 37 °C, 700 rpm for 10 min, to achieve the desired final cell count after addition of an equal volume of test compounds in medium, leading to a final test concentration of 1 µM at 1% DMSO. […] For the determination of metabolism in the presence of cobicistat, this drug was added together with test compounds in the desired concentration range. The metabolic stability of testosterone, verapamil, ketoconazole and 7-hydroxycoumarine were determined in parallel to confirm the enzymatic activity of mouse hepatocytes. […] Concentration of the remaining test compound at the different time points was analyzed by HPLC-MS/MS (Vanquish Flex coupled to a TSQ Altis Plus, Thermo Fisher, Dreieich, Germany) and used to determine half-life (t1/2). Intrinsic clearance was calculated as follows:2 CLintµL/min×10^6cells=Incubation volumeµL×ln(2)/Cells in incubation mixture[10^6]×t1/2
For metabolite identification studies, test compounds were incubated at 10 µM final concentration and samples were analyzed using HPLC-HRMS (Ultimate 3000 coupled to a Q Exactive Focus, Thermo Fisher, Dreieich, Germany). […] Blank samples using DMSO were run in parallel for background subtraction. Sample processing for metabolite identification was performed using Compound Discoverer 3.2 (Thermo Fisher, Dreieich, Germany). Metabolites were identified based on mass shifts and feasibility of the metabolic reaction, also in view of MS peak intensities over time.

Mouse plasma stability = assay type: in vitro ADME; settings: read-out: Mouse plasma t1/2
[4] = Mouse plasma protein binding; assay type: in vitro ADME; settings: read-out: Mouse PPB (converted)
physchem = settings: zebrafish embryo incubation medium, aqueous buffer, kinetic from dmso stock

T1 sequence (P11388 whole entry): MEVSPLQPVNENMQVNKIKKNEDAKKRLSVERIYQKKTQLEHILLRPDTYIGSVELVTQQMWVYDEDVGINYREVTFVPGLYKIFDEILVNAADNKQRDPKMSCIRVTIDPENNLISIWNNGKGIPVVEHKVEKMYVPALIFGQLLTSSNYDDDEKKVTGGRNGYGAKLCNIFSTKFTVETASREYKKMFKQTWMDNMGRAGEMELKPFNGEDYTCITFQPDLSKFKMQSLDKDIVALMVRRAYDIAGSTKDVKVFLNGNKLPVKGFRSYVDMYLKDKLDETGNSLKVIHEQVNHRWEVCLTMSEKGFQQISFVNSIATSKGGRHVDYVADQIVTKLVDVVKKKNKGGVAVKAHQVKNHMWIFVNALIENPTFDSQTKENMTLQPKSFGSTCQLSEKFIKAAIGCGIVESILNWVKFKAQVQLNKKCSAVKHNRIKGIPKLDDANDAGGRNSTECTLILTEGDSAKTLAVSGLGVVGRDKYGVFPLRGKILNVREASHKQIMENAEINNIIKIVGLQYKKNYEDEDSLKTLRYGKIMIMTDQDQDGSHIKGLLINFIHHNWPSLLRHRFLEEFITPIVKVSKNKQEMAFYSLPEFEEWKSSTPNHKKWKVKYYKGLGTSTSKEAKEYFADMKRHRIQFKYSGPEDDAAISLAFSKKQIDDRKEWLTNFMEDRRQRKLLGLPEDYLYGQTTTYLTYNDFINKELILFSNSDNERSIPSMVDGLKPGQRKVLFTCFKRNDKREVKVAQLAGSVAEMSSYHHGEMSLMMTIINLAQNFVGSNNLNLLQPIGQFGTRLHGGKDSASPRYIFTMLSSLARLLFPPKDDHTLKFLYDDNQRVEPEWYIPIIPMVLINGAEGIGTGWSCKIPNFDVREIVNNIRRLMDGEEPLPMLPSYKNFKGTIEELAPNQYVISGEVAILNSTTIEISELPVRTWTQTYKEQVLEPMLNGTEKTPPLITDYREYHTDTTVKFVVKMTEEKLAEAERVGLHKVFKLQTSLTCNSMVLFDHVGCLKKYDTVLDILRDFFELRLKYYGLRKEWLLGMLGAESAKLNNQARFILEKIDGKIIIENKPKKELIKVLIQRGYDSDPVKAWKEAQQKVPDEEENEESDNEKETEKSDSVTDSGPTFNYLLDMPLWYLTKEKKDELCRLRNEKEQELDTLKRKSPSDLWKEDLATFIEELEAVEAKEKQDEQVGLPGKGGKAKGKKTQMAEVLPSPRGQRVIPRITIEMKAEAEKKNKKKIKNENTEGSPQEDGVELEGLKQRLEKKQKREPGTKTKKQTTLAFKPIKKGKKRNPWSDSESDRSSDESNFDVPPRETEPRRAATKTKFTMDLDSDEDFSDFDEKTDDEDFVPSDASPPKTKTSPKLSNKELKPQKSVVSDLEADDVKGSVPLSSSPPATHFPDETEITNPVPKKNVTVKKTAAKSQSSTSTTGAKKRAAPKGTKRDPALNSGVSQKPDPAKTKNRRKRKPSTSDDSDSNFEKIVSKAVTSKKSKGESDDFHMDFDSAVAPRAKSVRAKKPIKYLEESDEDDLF

CO[C@H](C(N)=O)[C@H](NC(=O)c1ccc(NC(=O)c2ccc(C#N)cc2)cc1)C(=O)Nc1ccc(C(=O)Nc2ccc(C(=O)Nc3ccc(C(=O)O)cc3)c(O)c2OC(C)C)cc1 [CN-861-2]
IC50 [1]: 6.26 ± 4.69 µM
IC50 (HepG2 (human, liver)): > 20 µM
IC50 (HEK293 (human, kidney)): > 20 µM
IC50 (HCT116 (human, colon)): > 20 µM
IC50 (CHO-K1 (hamster, ovary)): > 20 µM
IC50 (HeLa (human, cervix)): > 37 µM
IC50 [2]: > 20 µM
IC50 (Huh-7.5 (human, liver)): > 20 µM
basal superoxide radical levels vs DMSO control (U-2 OS cells; 20 µM, MitoSOX Red, no menadione): decrease of superoxide radical levels
menadione-induced superoxide formation on co-treatment (U-2 OS cells; CYS 20 µM + menadione 50 µM): slight yet statistically significant increase in superoxide production
stable in murine hepatocytes for [3]: > 3 h
hepatocyte CLint at 1 µM ([3]; mouse, pooled mouse hepatocytes, 1 μM, 0.25 × 10^6 cells/mL): < 5.1 µL/min/1e6 cells
half-life at 1 µM ([3]; mouse, pooled mouse hepatocytes, 1 μM, 0.25 × 10^6 cells/mL, read-out: Mouse Hepatocytes t1/2): > 180 min
half-life (Mouse plasma stability): > 240 min
fraction unbound [4]: 0.0037
solubility (physchem): 20 µM (≈ 16.8 µg/mL)
